Measurements reported in patent US20030166138A1, “Cyclic peptides and analogs useful to treat allergies” (priority 2002, published 2003).
“Also recorded” adds a separate entry of the source.

Key:
[1] = tested on: germline ε promoter; assay: GFP reporter assay of IL-4 induced ε promoter-driven transcription in naive A5T4 cells (phenotype transfer); assay type: cell-based; conditions: for activity in blocking epsilon promoter transcription (GFP reporter) when presented in the mutant intein context: mutant intein construct; for activity in blocking epsilon promoter transcription (GFP reporter) when presented in the mutant intein context / Mutant Reporter Ratio (± std) / Wild-Type Reporter Ratio (± std): naive A5T4 cells; for Mutant Reporter Ratio (± std): mutant intein construct (non-cyclic, splicing-deficient), IL-4 stimulated, GFP fluorescence; for Wild-Type Reporter Ratio (± std): wild-type intein construct (cyclic peptide), IL-4 30 U/ml, GFP fluorescence BFP−/BFP+, average of 3 values
Description: To establish the A5T4 reporter cell line, BJAB cells were infected with a retroviral vector containing an IL-4 responsive 600 bp fragment of the epsilon promoter (Pε) followed by a fusion nucleic acid encoding HBEGF-2a-GFP and a polyadenylation sequence cloned in the reverse orientation into pCGSin (Lorens et al., 2000, Mol. Ther. 1:438-447). Infected cells were induced with IL-4 and single cell sorted by FACS for GFP reporter expression. One of the cell clones identified with the desired profile was designated A5. This cell line was infected with the CtTAIH retroviral vector expressing tTA-VP16 ires hygromycin phosphotranferase gene (Lorens et al., 2000, Virology 272:7) selected with hygromycin and single cell cloned. The clone selected for the screening cell line was characterized for tetracycline regulation and was designated A5T4.
Referring to FIG. 9 or 10, after single cell clones had expanded, cells were replica-plated and grown in the presence or absence of 100 ng/ml Dox for 4 days. Both plates were then stimulated with IL-4 (30 U/ml) and, after 3 more days, both populations were analyzed by FACS to measure GFP fluorescence. FACS data were converted to reporter ratios, which are defined as the ratio of the geometric mean of GFP fluorescence of the +IL-4/+Dox (peptide off) population over the geometric mean of the +IL-4/−Dox (peptide on) population. Cells expressing a cyclic peptide that inhibits germline ε transcription have reporter ratios of >1.1, typically >1.12, >1.13, >1.14 or >1.15.
Phoenix packaging cells were transfected with the retroviral vector illustrated in FIG. 6A encoding a particular cyclic peptide as described in WO 97/27213. Naïve A5T4 cells were infected with the resultant retrovirons and grown for three days. The infected cells (BFP^+) were stimulated with IL-4 (30 U/ml) and, after three days, were assessed by FACS for BFP and GFP fluorescence.
The GFP fluorescence data corresponding to the BFP^−/BFP^+in the presence of IL-4 stimulation were obtained for 34 clones and reporter ratios were calculated therefrom. […] Three others had reporter wt ratios in the range of about 1.12-1.2. The names of the clones, sequences of the regions of the polynucleotides encoding the cyclic peptides SEQ ID NOS:1-23, the sequences of the expressed cyclic peptides SEQ ID NOS:1-23 and their respective reporter ratios are provided in TABLE 1, below (“wild-type” reporter ratios; each reporter ratio is the average of 3 values):
As discussed previously, intein splicing is dependent upon the presence of nucleophilic residues at the splice junctions (underlined in FIG. 6A; see Perler & Adam, 2000, Curr. Opin. Biotechnol. 11:377-383). To confirm that the inhibitory activity of the clones of TABLE 1 was due to the expression of a cyclic peptide, mutants were created that lacked the ability to catalyze the splicing reaction due to the replacement of these three critical underlined nucleophilic residues with alanines. These mutants (illustrated in FIG. 6B) were then used to infect naive A5T4 cells as described above.

[2] = tested on: endogenous germline ε promoter; assay: Quantitative real time PCR (Taqman) of endogenous germline ε transcript in A5T4 cells; assay type: cell-based; conditions: mutant intein context, +IL-4
Description: The ability of cyclic peptides SEQ ID NOS:1-20 to inhibit transcription of an endogenous germline ε promoter was confirmed using quantitative real time PCR (Taqman®; Applied Biosystems, Foster City, Calif.). Briefly, A5T4 cells were infected with retrovirus capable of expressing the cyclic peptides (prepared as described above). Cells were first sorted for BFP to ensure that they were retrovirally infected. Several different assay conditions were tested: −Dox/-IL-4, −Dox/+IL-4, +Dox/-IL-4, +Dox/+IL-4. All experiments were conducted in triplicate. BFP positive sorted cells were thereafter maintained in Dox (peptide off). To obtain the −Dox condition, cells were washed 2× with media and maintained in Dox-free culture for 72 hours. Cells in +/−Dox were split to 50,000 cells per ml. The following day, IL-4 was added (30 units/ml) and cells were incubated for 3 days before FACS analysis and pelleting for RNA extraction. The primers and probe used were as follows (the probe was labeled at the 5′-end with Fam and at the 3′-end with Tamra):
The probe spans a splice junction and thus will not detect contaminating DNA in the reaction assay. […] The epsilon inhibition ratio R was calculated by dividing the transcript expression values in the presence of Dox and IL-4 (+IL-4/+Dox) by values in the absence of Dox and presence of IL-4(+IL-4/−Dox). […]

| Substance | activity in blocking epsilon promoter transcription (GFP reporter) when presented in the mutant intein context [1] | Mutant Reporter Ratio (± std) [1] | Wild-Type Reporter Ratio (± std) [1] | block of endogenous ε-transcription [2] | inhibition of ε-promoter induction ([1]; net increase of geometric mean GFP fluorescence following IL-4 stimulation, BFP+ vs uninfected population, wild-type intein) |
| --- | --- | --- | --- | --- | --- |
| cyclo(S A R F V) | decrease in activity | 1.43 ± 0.03 | 1.52 ± 0.04 | – | – |
| cyclo(S D H S Q) | inactive | 1.06 ± 0.06 | 1.20 ± 0.04 | – | – |
| cyclo(S E M F S I Q) | inactive | 1.13 ± 0.03 | 1.28 ± 0.03 | – | – |
| cyclo(S F G R S) | inactive | 1.08 ± 0.06 | 1.20 ± 0.02 | – | – |
| cyclo(S F V T W) | decrease in activity | 1.25 ± 0.06 | 1.46 ± 0.12 | – | – |
| cyclo(S G A D S) | inactive | 1.08 ± 0.05 | 1.23 ± 0.02 | – | – |
| cyclo(S L N R I) | remained active | 1.40 ± 0.08 | 1.45 ± 0.07 | – | – |
| cyclo(S N F T F) | inactive; also recorded: did not strongly block | 1.08 ± 0.05 | 1.28 ± 0.05 | clearly blocked | – |
| cyclo(S N I P Q) | inactive | 1.10 ± 0.02 | 1.20 ± 0.01 | – | – |
| cyclo(S P W K L V G) | inactive | 1.02 ± 0.06 | 1.27 ± 0.03 | – | – |
| cyclo(S R N W S H) | inactive | 1.06 ± 0.04 | 1.18 ± 0.04 | – | – |
| cyclo(S R R D R I) | inactive | 1.08 ± 0.04 | 1.31 ± 0.03 | – | – |
| cyclo(S R R H C C H) | – | 1.02 ± 0.03 | 1.09 ± 0.03 | – | – |
| cyclo(S R V E I) | No significant difference; also recorded: inactive | 1.06 ± 0.06 | 1.53 ± 0.16 | – | 51% |
| cyclo(S S C M R) | – | 1.20 ± 0.12 | 1.12 ± 0.03 | – | – |
| cyclo(S S F T) | – | 1.05 ± 0.04 | 1.10 ± 0.03 | – | – |
| cyclo(S S L R W) | decrease in activity | 1.21 ± 0.02 | 1.31 ± 0.05 | – | – |
| cyclo(S T G P R) | remained active | 1.18 ± 0.04 | 1.19 ± 0.03 | – | – |
| cyclo(S V I E Q) | decrease in activity | 1.14 ± 0.04 | 1.22 ± 0.04 | – | – |
| cyclo(S V V T R) | remained active | 1.26 ± 0.03 | 1.19 ± 0.03 | – | – |
| cyclo(S W A Q A) | inactive | 1.10 ± 0.04 | 1.25 ± 0.02 | – | – |
| cyclo(S Y F T S C W) | decrease in activity | 1.27 ± 0.01 | 1.36 ± 0.07 | – | – |
| cyclo(S Y S Q) | inactive | 1.07 ± 0.01 | 1.18 ± 0.01 | – | – |
